Laboratory results: patent US10143668B2, “Hydroxy-substituted amino and ammonium derivatives and their medical use” (GRI BIO, INC., priority 2011, dated 2018)
Marks after values point to notes of the source that are not given here.

Key:
[1] = test system: allergic contact dermatitis response in mice; experiment: Allergic contact dermatitis (TDI) model in mice, mouse ear swelling test; type: in vivo; conditions: topical, 2 h before challenge
Method: The anti-inflammatory and anti-allergic effects of compound 1a were assessed in a mouse model of allergic contact dermatitis, a response driven primarily by T helper type 2 (Th2) cells. […] In this model, an allergic dermatitis response is obtained by sensitizing mice to TDI and subsequently challenging them with antigen by topical administration onto the ears. A quantitative assessment of anti-inflammatory and anti-allergic effects of topically or orally administered test compounds is possible by measuring the resulting ear swelling.
Female BALB/c-mice were obtained from Charles River (Sulzfeld, Germany) at age 8 weeks. All animals were housed in groups of eight per cage at 22° C. with a 12 h light/dark-cycle. Water and a standard diet (Altromin, Lage/Lippe, Germany) were available ad libitum. All animals were acclimatized for one week before experimental procedures were commenced.
Experimental procedures for BALB/c mice housing, TDI sensitization and challenge, and measurement of ear thickness were performed as previously described (Baumer et al., J Pharm Pharmacol. 55:1107-1114 (2003)) with the following modifications. For active sensitization, 100 μL of 5% (w/v) TDI was administered to the shaved and stripped abdominal epidermis on day one, and for the next three consecutive days, 50 μL of 5% (w/v) TDI was applied. The allergic reaction was boosted 21 days later by application of 50 μL of 0.5% (w/v) TDI. For the examination of test compound effects, the left ears were used for the TDI challenge (20 μL of 0.5% in acetone) and ear thickness measured 3 h before and 24 h after challenge.
Administration time: to determine optimal time for administration treatment groups were treated orally by gavage with 100 mg/kg of compound 1a (suspended in 0.5% tylose, 10 mL/kg) 1, 4 or 16 h before topical TDI challenge. One group was treated with 100 mg/kg miltefosine orally, 16 h before challenge (based on available data for optimal administration time for miltefosine) and vehicle treated mice received tylose (10 mL/kg) orally, 4 h before challenge.
Comparison with dexamethasone: one group of mice was treated orally with compound 1a at 100 mg/kg suspended in 0.5% tylose, 4 h before topical TDI challenge. Vehicle treated mice received 0.5% tylose orally 4 h before challenge. As a positive control, dexamethasone was administered in saline solution at 1 mg/kg or 3 mg/kg, 2 h and 30 min before challenge and 1 h after challenge. The dose and dosing scheme for dexamethasone was based on previous experience showing a maximal effect in this model.
[…] The solution was applied, 2 h before topical TDI challenge by administration of 10 μl onto each of the inner and outer surfaces of the left ears. A vehicle group (n=5) was treated with propyleneglycol. As a positive control, diflorasone diacetate was administered at 0.01% (low dose) and 0.05% (high dose) in 20 μl acetone, 2 h before challenge. A basal control group was left untreated.
Mean and standard error of the mean (SEM) were calculated from individual ear edema values. Statistical evaluation was a one-way analysis of variance (ANOVA) (if the test for normal distribution was passed) or the Kruskal-Wallis one-way ANOVA on Ranks (if the normal distribution test failed). Both were followed by a post-hoc test (Dunnett's method or Dunn's test, respectively). A p<0.05 was considered to be significant.

[2] = test system: local lymph node reaction; experiment: Local lymph node weight and cell count after TDI challenge; conditions: topical, diflorasone 0.1% and 0.5%, 1a 2% or 6%
Method: Directly after sacrifice, the ear draining lymph node (Ln. auricularis) was prepared and excised. Organ weight was determined by means of an analytical balance (Kern, Balingen, Germany). Single cell suspensions were prepared by means of a glass potter (VWR, Darmstadt, Germany) and cells were counted with a hemocytometer (Neubauer, VWR, Germany).
One of the most undesirable side-effects of corticosteroid administration is immunosuppression, which leads to the inability to effectively address parasitic infection, wound healing and tumor growth. In the current study, the local lymph node reaction after TDI challenge (lymph node weight and cell number) was determined to assess the response of immune organs.

## CC(=O)OCC(=O)[C@@]1(OC(C)=O)[C@@H](C)C[C@H]2[C@@H]3C[C@H](F)C4=CC(=O)C=C[C@]4(C)[C@@]3(F)[C@@H](O)C[C@@]21C [Diflorasone, diflorasone diacetate, reference compound]
[1]; 0.1%
  Inhibition of mouse ear swelling: 101.1*** %
[1]; 0.5%
  Inhibition of mouse ear swelling: 110.8*** %
[2]
  local lymph node reaction (lymph node weight and cell number): highly significant reduction
